# Measured values as given in patent publication US4156777A, “Process for producing glucopyranose-nitrosourea compounds and novel compounds included therein” (Tokyo Tanabe Company, Limited, priority 1977, dated 1979).
# Read-outs that look alike come from different tables or passages of the source.
# Tests used:
# [1] = Absorption and excretion of 14C-labelled compounds; assay type: in vivo, rats
# Method: The carbon atom at the 2-position of the chloroethyl group (i.e. ClCH2 CH2 -) of 6DCNU and 6MCαG was labelled with radioactive ^14 C, and the absorption and excretion of these compounds were tested using rats.
# [2] = cited from earlier work
# [3] = Solubility in water at 25° C.; assay type: physicochemical; conditions: amount soluble in 1 ml water at 25° C.
# leukemia L-1210 = assay: Antitumor activity against leukemia L-1210 implanted in BDF1 mice (ILS, 60 days survivors); assay type: in vivo
# Text: Test compounds were given to BDF1 mice 24 hrs after implantation of 10^6 cells of leukemia L-1210 in each animal, through single intraperitoneal administration, intraperitoneal administration for 5 successive days, single oral administration or oral administration for 5 successive days, whereupon the increase in life span (referred to as "ILS") and number of 60 days survivors of test animals were estimated, said test of antitumor activity being that according to the method of the National Cancer Center, Tokyo [A. Hoshi et al: Farmashia, 9 (1973), 464]. In the tests, the compounds were dissolved in physiological saline solution just before administration.
# ^a i.p.: intraperitoneal administration p.o: oral administration
# D1 : single administration D1~5 : administration for 5
# ^b percentage calculated from mean survival time over control
# ^c survivors/six animals
# [4] = Diabetogenic activity (blood glucose concentration after intravenous administration); assay type: in vivo, male Wister rats
# Method: 40-96 mg/kg of the test compounds were administered intravenously to starved male Wister rats weighing 240-260 g each, and the blood glucose concentrations of the test animals were estimated by the glucose exidase method [L. L. Saloman et al: Anal. Chem., 31 (1959), 453], in which test the compounds were dissolved in physiological saline solution just before administration. […]
# Acute toxicity (LD50) = assay type: in vivo, male Wister rats; conditions: rat, in vivo, after 1 week
# Method: Test compounds were dissolved in physiological saline solution just before their dosage and administered to male Wister rats, intraperitoneally, intravenously and orally. After 1 week, the LD50 of each compound was calculated from the mortality of the test animals by the Lichfield-Wilcoxon Method.
# i.v.: intravenous administration
# [5] = Effect on respiration, blood pressure, heart rate and electrocardiogram; assay type: in vivo, Beagle dogs; conditions: dog, in vivo, iv; injected into brachial veins, anesthetized Beagle dogs; read-out: maximum dosage not effected on respiration, blood pressure, heart rate and electrocardiogram
# Method: Beagle dogs of both sexes weighing about 10 kg were anesthetized with pentobarbital sodium (30 mg/kg, i.v.), and immobilized in the supine position. Test compounds dissolved in physiological saline solution were injected into the brachial veins of the animals and the arteries at cannulated positions were treated with heparin sodium as anticoagulant.
# The respiration rate of each animal was estimated with a respirometer (Nihonkohden, RP-3) through a tracheal cannula, the blood pressure with an electro-haemodynamometer (Nihonkohden, MP-4T) attached surgically to the femoral artery, and the heart rate with a pulse-rate tachometer (Nihonkohden, RT-2) through the trigger pulse of the blood pressure.
smiles,measurement,setting,value
CO[C@H]1O[C@H](CNC(=O)N(C[14CH2]Cl)N=O)[C@@H](O)[C@H](O)[C@H]1O [6MCαG-^14 C],dose excreted in urine,[1]; within 12 hours after the dose,50-60%
same,dose excreted in expiration,[1]; within 24 hours,3-4%
same,dose excreted in faeces,[1]; within 96 hours,5-6%
same,dose excreted in urine,[1]; within 96 hours after the dose,80-90%
"CN(N=O)C(=O)N[C@H]1C(O)O[C@H](CO)[C@@H](O)[C@@H]1O (stereo partly drawn) [SZ, 3-(d-glucopyranos-2-yl)-1-methyl-1-nitrosourea]","diabetogenic activity, decreasing order","[2]; rat, in vivo",SZ>DCNU>GANU> 2MCαG≈6MCαG
"CO[C@H]1O[C@H](CO)[C@@H](O)[C@H](O)[C@H]1NC(=O)N(CCCl)N=O [Example 2MCαG, 1-(2-chloroethyl)-3-(methyl α-D-glucopyranos-2-yl)-1-nitrosourea]",solubility,[3],45 mg/mL
same,ILS,"leukemia L-1210; 0.5 mg/kg/day, i.p. D1~5",15%
same,ILS,"leukemia L-1210; 1.0 mg/kg/day, i.p. D1~5",48%
same,ILS,"leukemia L-1210; 2.0 mg/kg/day, i.p. D1~5",> 249%
same,Survivors (60 days),"leukemia L-1210; 2.0 mg/kg/day, i.p. D1~5",1/6
same,ILS,"leukemia L-1210; 2.0 mg/kg/day, p.o. D1~5",> 143%
same,Survivors (60 days),"leukemia L-1210; 2.0 mg/kg/day, p.o. D1~5",1/6
same,ILS,"leukemia L-1210; 3.2 mg/kg/day, i.p. D1~5",> 394%
same,Survivors (60 days),"leukemia L-1210; 3.2 mg/kg/day, i.p. D1~5",3/6
same,ILS,"leukemia L-1210; 3.2 mg/kg/day, p.o. D1~5",> 246%
same,Survivors (60 days),"leukemia L-1210; 3.2 mg/kg/day, p.o. D1~5",2/6
same,ILS,"leukemia L-1210; 4.0 mg/kg/day, i.p. D1~5",> 349%
same,Survivors (60 days),"leukemia L-1210; 4.0 mg/kg/day, i.p. D1~5",2/6
same,ILS,"leukemia L-1210; 6.3 mg/kg/day, i.p. D1",> 128%
same,ILS,"leukemia L-1210; 6.3 mg/kg/day, i.p. D1~5",> 198%
same,Survivors (60 days),"leukemia L-1210; 6.3 mg/kg/day, i.p. D1~5",1/6
same,ILS,"leukemia L-1210; 6.3 mg/kg/day, p.o. D1~5",> 380%
same,Survivors (60 days),"leukemia L-1210; 6.3 mg/kg/day, p.o. D1~5",3/6
same,ILS,"leukemia L-1210; 8.0 mg/kg/day, i.p. D1",> 432%
same,Survivors (60 days),"leukemia L-1210; 8.0 mg/kg/day, i.p. D1",3/6
same,ILS,"leukemia L-1210; 10.0 mg/kg/day, i.p. D1",> 717%
same,Survivors (60 days),"leukemia L-1210; 10.0 mg/kg/day, i.p. D1",6/6
same,ILS,"leukemia L-1210; 10.0 mg/kg/day, i.p. D1~5",> 190%
same,Survivors (60 days),"leukemia L-1210; 10.0 mg/kg/day, i.p. D1~5",1/6
same,ILS,"leukemia L-1210; 12.5 mg/kg/day, i.p. D1~5",> 160%
same,Survivors (60 days),"leukemia L-1210; 12.5 mg/kg/day, i.p. D1~5",1.6 survivors/six animals
same,ILS,"leukemia L-1210; 12.5 mg/kg/day, p.o. D1~5",> 211%
same,Survivors (60 days),"leukemia L-1210; 12.5 mg/kg/day, p.o. D1~5",2/6
same,ILS,"leukemia L-1210; 20.0 mg/kg/day, i.p. D1",> 717%
same,Survivors (60 days),"leukemia L-1210; 20.0 mg/kg/day, i.p. D1",6/6
same,ILS,"leukemia L-1210; 20.0 mg/kg/day, i.p. D1~5",58%
same,ILS,"leukemia L-1210; 25.0 mg/kg/day, i.p. D1",> 539%
same,Survivors (60 days),"leukemia L-1210; 25.0 mg/kg/day, i.p. D1",4/6
same,Blood Glucose Concentration,"[4]; 40 mg/kg i.v., 0 hr after treatment",71.0 mg/dL
same,Blood Glucose Concentration,"[4]; 40 mg/kg i.v., 2 hr after treatment",73.5 mg/dL
same,Blood Glucose Concentration,"[4]; 40 mg/kg i.v., 4 hr after treatment",70.6 mg/dL
same,Blood Glucose Concentration,"[4]; 40 mg/kg i.v., 7 hr after treatment",72.3 mg/dL
same,Blood Glucose Concentration,"[4]; 40 mg/kg i.v., 10 hr after treatment",68.3 mg/dL
same,Blood Glucose Concentration,"[4]; 40 mg/kg i.v., 24 hr after treatment",72.7 mg/dL
same,Blood Glucose Concentration,"[4]; 40 mg/kg i.v., 48 hr after treatment",70.4 mg/dL
same,Blood Glucose Concentration,"[4]; 60 mg/kg i.v., 0 hr after treatment",70.4 mg/dL
same,Blood Glucose Concentration,"[4]; 60 mg/kg i.v., 2 hr after treatment",74.2 mg/dL
same,Blood Glucose Concentration,"[4]; 60 mg/kg i.v., 4 hr after treatment",68.2 mg/dL
same,Blood Glucose Concentration,"[4]; 60 mg/kg i.v., 7 hr after treatment",68.7 mg/dL
same,Blood Glucose Concentration,"[4]; 60 mg/kg i.v., 10 hr after treatment",67.5 mg/dL
same,Blood Glucose Concentration,"[4]; 60 mg/kg i.v., 24 hr after treatment",73.8 mg/dL
same,Blood Glucose Concentration,"[4]; 60 mg/kg i.v., 48 hr after treatment",70.8 mg/dL
same,"blood glucose concentrations versus control, in words","[4]; i.v., rats",substantially the same blood glucose concentrations as that in the control
same,LD50 at 168 h,Acute toxicity (LD50); ip,48 mg/kg
same,LD50 at 168 h,Acute toxicity (LD50); po,49 mg/kg
same,NOAEL,[5],30 mg/kg
same,"diabetogenic activity, decreasing order","[2]; known compounds, generally seen",SZ>DCNU>GANU> 2MCαG≈6MCαG
